According to patent publication US20250352506A1, “MRGPRB2/X2, AGONIST AND ANTAGONIST AND METHODS THEREOF” (THE UNIVERSITY OF HONG KONG, priority 2024, published 2025):
Entries after “also recorded” stand apart in the source; their conditions may differ.

Columns and labels:
[1] = test system: 2.5% DSS-induced colitis in C57BL/6N mice; assay: Treatment study in 2.5% DSS-induced colitis, clinical parameters (DAI, colon, H&E); format: in vivo, mouse; conditions: WT mice, 2.5% DSS Day 0 to 5, ligands every alternative day to Day 12; P17 and analogues 150 μg/kg, CST-14 15 μg/kg, GE1111 300 μg/kg
Description: (§1) C57BL/6N and Mrgprb2−/− adult mice (6-8 weeks old) were obtained from CMMR and housed in cages for acclimatation for a week. C57BL/6N and Mrgprb2−/− mice were divided into four groups (N=5-6) (2% DSS in drinking water and water control). Controls were fed with regular water and the treatment groups were exposed to 2% DSS for 5 days (Day 0 to Day 5) and regular water till Day 12. DSS-Colitis Grade (36,000-50,000 MW) (MP Biomedicals, Santa Ana, CA) was used in this study. During experiments, these mice were given anaesthesia to harvest blood and organs for other biochemical and histology analysis. For the survival study with Mrgprb2/x2 agonists, C57BL/6N mice were grouped into […] (N=10) and fed with 4% DSS for 5 days (Day 0 to 5) and replaced with regular drinking water for the rest of the experiment. Meanwhile, Mrgprb2/x2 ligands were given to the animals every alternative day via i.p. injection 100 μL with 10 μg/kg mice. […]
All animals were examined daily and the disease activity index (DAI) score was assessed as previously described by assessing stool consistency, presence of blood in stool and body weight change as summarised in Table 1. Percentage of body weight was calculated relative to the initial body weight at Day 0 [(Weight on a Day−Initial weight at Day 0/Initial weight at Day 0)×100].

[2] = test system: pERK 1/2 MAPK pathway and STIM1 in LAD2 mast cells; assay: Western blot of LAD2 mast cells treated with Mrgprx2 ligands (pERK1/2, STIM1); format: cell-based; conditions: GE1111 25 μM added 30 min prior to agonists
Procedure: LAD2 cells were treated with agonists (1 μM Compound 48/80, P17, P17*A4, P17*A7 and 25 μM GE1111) for 15 min. For antagonist study, GE1111 (25 μM) were added 30 min prior to adding the agonists ([…] Compound 48/80, P17, P17*A4 and P17*A7). Cells were harvested and RIPA buffer containing cocktail mix of phosphatase and protease inhibitors was used to extract protein. Upon Bradford assay, harvested proteins were denatured with Lamelli buffer at 95° C. for 5 min. Protein samples were loaded in SDS-PAGE and transferred to nitrocellulose membrane. Membranes were blocked with 5% BSA for 1 hr and incubated at 4° C. overnight with primary antibodies (1:1000) in BSA (p44/42 MAPK (Erk1/2) (137F5) Rabbit mAb #4695, cell signalling, USA; Phospho-p44/42 MAPK (Erk1/2) (Thr202/Tyr204) (D13.14.4E) XP® Rabbit mAb #4370, Cell Signalling, USA; GAPDH (14C10) Rabbit mAb #2118, Cell signalling, USA; STIM1 Antibody #4916, Cell Signalling, USA) followed by (1:2000) HRP linked anti-rabbit secondary antibody (Anti-rabbit IgG, HRP-linked Antibody #7074) in 1 hr at room temperature. ECL was added and blots were visualized with Bio Rad CHEMIDOC™ MP imaging system.

Mrgprx2 = target: T1, Mrgprx2 (Homo sapiens, UniProt Q96LB1); assay: PRESTO-Tango GPCR β-arrestin recruitment assay in Mrgprx2-transfected HTLA cells; format: cell-based
T1 construct: Tango fusion cassette; expressed in transfected cells; host or cells: HTLA cells
T1 sequence (Q96LB1 1-330): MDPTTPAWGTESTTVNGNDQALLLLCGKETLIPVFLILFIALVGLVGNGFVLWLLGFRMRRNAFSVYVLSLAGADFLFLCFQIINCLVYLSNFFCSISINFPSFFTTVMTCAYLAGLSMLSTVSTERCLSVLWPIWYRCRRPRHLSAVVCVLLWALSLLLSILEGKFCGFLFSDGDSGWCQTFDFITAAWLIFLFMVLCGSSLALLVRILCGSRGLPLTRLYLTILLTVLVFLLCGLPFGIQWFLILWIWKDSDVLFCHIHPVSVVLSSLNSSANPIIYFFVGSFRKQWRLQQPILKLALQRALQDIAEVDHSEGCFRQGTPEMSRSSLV
Procedure: HTLA cells were maintained in DMEM supplemented with 10% FBS, 2 μg/mL puromycin and 100 μg/mL hygromycin B in a humidified atmosphere at 37° C. in 5% CO2. One million cells were seeded in 100 mm cell culture dish (Day 1). Cells were transfected with 4 μg Tango-MRGPRX2 construct using Lipofectamine 2000 reagent (Day 2). On day 3, cells were harvested and 20,000 cells per well were plated in 80 μL medium into poly-L-lysine coated and rinsed 96-well white cell culture plates (PerkinElmer). On day 4, GE1111 (final concentration […]) is added 1 hr prior to the agonists or antagonist in dose response manner (Compound 48/80, P17, P17*A4, P17*A7 and GE1111). On day 5, medium and drugs were removed from the wells slowly (aspiration) and […] luciferase substrate solution (500 mM DTT, 10 mM CoA, 100 mM ATP, 80 mg/mL luciferin and triton lysis buffer) were added to each well. After incubation for 10 min at room temperature, luminescence was counted in PerkinElmer Victor X4. RLU (relative luminescence units) results were exported into Excel sheets and GraphPad Prism 10 was used for analysis of data. To measure constitutive basal activity, no ligand was added on day 4.

[3] = test system: cytokine and chemokine releases in the blood; assay: Cytokine array analysis of blood plasma; format: in vivo, mouse; conditions: mice exposed to 2.5% DSS, 40-target array
Procedure: The cytokine membranes were blocked with blocking buffer in room temperature for 1 hr. The blocking buffer was removed from the membranes and […] of plasma obtained from the treatment groups (WT+Water, WT+2% DSS, Mrgprb2−/−+Water and Mrgprb2−/−+2% DSS; Water+Saline, 2.5% DSS+Saline, 2.5% DSS+P17*A7 and 2.5% DSS+GE1111) diluted in blocking buffer (total volume 1 mL) were subjected to membrane containing array of antibodies anti-cytokines. The membranes were first incubated at 4 °C for 24 hr in the blocking buffer, following five washes with washing buffers (I and II) and then incubated with 1× biotin-conjugated anti-cytokines overnight at 4 °C. Membranes were washed again with washing buffers (I and II) 5 five times and incubated with 1×HRP-conjugated streptavidin for 2 hr at room temperature. Membranes were washed again, and 1 mL of detection buffer C and D were mixed and added to each membrane in dark for 2 min before imaging. Finally, array images were measured with ChemiDoc MP (Bio-Rad Laboratories, Hercules, CA). The detailed protocol can be referred to the instructions of a Cytokine Antibody Array Kit (ab133999—40 targets, Abcam).

[4] = test system: Mrgpra1 and Mrgprb2 expression in colon; assay: qRT-PCR of mouse orthologs of Mrgprx2 in colon; format: in vivo; conditions: WT mice, 2.5% DSS-induced colitis
Procedure: To assess the gene expression profile in colon, distal colons were used to isolate total RNA using Trizol. Total RNA was precipitated for 30 min in […] with isopropanol and glycogen. The precipitated RNA was then washed with 75% ethanol and resuspended in RNase-free water for first strand cDNA synthesis following the protocol from HiScript® II Q RT SuperMix (Vazyme biotech co., ltd, China). cDNA harvested were quantified by quantitative PCR (7300 Real-Time PCR System, Applied Biosystems, Forster City, CA). The expression of genes was examined using ChamQ™ SYBR Color qPCR Master Mix as specified by the manufacturer protocol. All primer sequences are shown in Supplementary Table S1. […] method was employed for data analysis with the internal control, glyceraldehyde-3-phosphate dehydrogenase (gapdh).

[5] = test system: M-CSF, BLC, G-CSF and sTNF RI in blood plasma; assay: ELISA of cytokines in blood plasma; format: in vivo, mouse; conditions: mice exposed to 2.5% DSS
Procedure: Concentrations of cytokines in blood plasma of the treatment groups (WT+Water, WT+2% DSS, Mrgprb2−/−+Water, Mrgprb2−/−+2% DSS, Water+Saline, 2.5% DSS+Saline, 2.5% DSS+P17, 2.5% DSS+P17*A4, 2.5% DSS+P17*A7, 2.5% DSS+CST-14 and 2.5% DSS+GE1111) were determined using ELISA kits (M-CSF-ab199084, Abcam; LIX—ab264611, Abcam; sTNF RI—ab202408, Abcam; G-CSF—ab197743, Abcam; BLC-EMCXCL13, Thermofisher) according to the manufacturer's protocol. Optical densities of the samples and standards were measured using PerkinElmer Victor X4. Cytokine concentrations were determined by comparing the optical density from the standard curve of each cytokine standards.

[6] = test system: 4% DSS-induced colitis in C57BL/6N mice; assay: Survival study in 4% DSS-induced colitis; format: in vivo, mouse; conditions: WT mice, i.p. every alternative day
Description: as §1, with “mice. For the treatment study with Mrgprb2/x2 ligands, C57BL/6N mice were divided into 7 groups (N=8 per group). Six groups were receiving 2.5% DSS dissolved in drinking water for 5 days (Day 0 to Day 5) and regular water till Day 12 and the control group was receiving water from Day 0 to Day 12. These 6 groups exposed to 2.5% DSS were treated with Mrgprb2/x2 ligands or saline for every alternative day till Day 12.” for “mice.”

[7] = test system: DSS-induced colitis in mice models; conditions: recent studies [41]-[44]; cited from earlier work

Molecule | severity of DSS-induced colitis [1] | effect on agonist-induced pERK1/2 / STIM1 pathway [2] | effect on agonist-induced β-arrestin recruitment (Mrgprx2; GE1111 (final concentration 10 PM) added 1 hr prior to the agonists) | GE1111 dose response on Mrgprx2 (no agonist) (Mrgprx2; Mrgprx2-transfected HTLA cells, GE1111 alone) | cytokine and chemokine levels in the blood plasma (array) [3] | expression of Mrgpra1 and Mrgprb2 in colon [4] | M-CSF, BLC and G-CSF levels in blood plasma [5] | survival of mice [6] | DSS-induced colitis symptoms [7]
COC(=O)c1cc2cc(NC(N)=O)ccc2cc1-c1cc2c3c(c(O)ccc3c1)C(C)C(C=O)=C2 (stereo not shown) [GE1111] | reduced the severity of DSS-induced colitis | antagonized this pathway | antagonized the agonist activity | behaved as an inverse agonist | significant modifications in most of the cytokine and chemokine levels | restored their expression to the levels of healthy mice | significant reduction in these cytokine levels | increased the survival rate; also recorded: mimicked the effect of the agonist on mice survival | –
O=c1c(O)c(-c2ccc(O)c(O)c2)oc2cc(O)cc(O)c12 [quercetin] | – | – | – | – | – | – | – | – | ameliorate DSS-induced colitis symptoms
cortistatin 14 [CST-14, reference compound] | reduced the severity of DSS-induced colitis | – | – | – | – | – | – | increased the survival rate | ameliorate DSS-induced colitis symptoms
protegrin | – | – | – | – | – | – | – | – | ameliorate DSS-induced colitis symptoms
